From US8063071B2 (GlaxoSmithKline, LLC, priority 2007, dated 2011)
Structures can show the parent of a compound that is named as a salt.

How the values were obtained:
[1] = system: human monocyte stimulated cytokine production (TNF-α); assay: Monocyte assay (LPS-stimulated TNF-α production); assay type: cell-based; settings: for inhibition at 0.3 µM: read-out: inhibition at 300 nM in the monocyte assay; for IC50: 24 h, 200 ng/mL LPS, TNF-α by ELISA
Experimental: Effect of IKK-β inhibition on human monocyte stimulated cytokine production was assessed as follows: Monocytes were isolated from heparinized whole blood by Ficoll gradient, followed by purification of CD14+ cells using MACS magnetic cell separation beads. Isolated monocytes were then adhered to 96-well culture plates at 1×10^6 cells/mL in RPMI 1640 10% FBS (JRH Biosciences, Lenexa Kans.) for 2 h. Test compounds are added to the wells 30 minutes prior to stimulation with a final vehicle concentration of 0.1% DMSO. Monocytes were activated by the addition of 200 ng/mL endotoxin (LPS; E. coli serotype 026:B6)(Sigma, St. Louis, Mo.) and incubated for 24 hrs at 37 C. Cell-free supernates were analyzed by ELISA for TNF-α using Pharmingen matched pair Abs. Viability of the cells was determined by 10% trypan blue exclusion.

[2] = target: T1, Recombinant human IKKβ (residues 1-737) (Homo sapiens, UniProt O14920); assay: IKK2 assay (TR-FRET); assay type: biochemical; settings: ATP 1 μM final, read-out: pIC50 against IKK2 (converted)
T1 construct: Recombinant human IKKβ (residues 1-737); GST (C); made in house
T1 sequence (O14920 1-737): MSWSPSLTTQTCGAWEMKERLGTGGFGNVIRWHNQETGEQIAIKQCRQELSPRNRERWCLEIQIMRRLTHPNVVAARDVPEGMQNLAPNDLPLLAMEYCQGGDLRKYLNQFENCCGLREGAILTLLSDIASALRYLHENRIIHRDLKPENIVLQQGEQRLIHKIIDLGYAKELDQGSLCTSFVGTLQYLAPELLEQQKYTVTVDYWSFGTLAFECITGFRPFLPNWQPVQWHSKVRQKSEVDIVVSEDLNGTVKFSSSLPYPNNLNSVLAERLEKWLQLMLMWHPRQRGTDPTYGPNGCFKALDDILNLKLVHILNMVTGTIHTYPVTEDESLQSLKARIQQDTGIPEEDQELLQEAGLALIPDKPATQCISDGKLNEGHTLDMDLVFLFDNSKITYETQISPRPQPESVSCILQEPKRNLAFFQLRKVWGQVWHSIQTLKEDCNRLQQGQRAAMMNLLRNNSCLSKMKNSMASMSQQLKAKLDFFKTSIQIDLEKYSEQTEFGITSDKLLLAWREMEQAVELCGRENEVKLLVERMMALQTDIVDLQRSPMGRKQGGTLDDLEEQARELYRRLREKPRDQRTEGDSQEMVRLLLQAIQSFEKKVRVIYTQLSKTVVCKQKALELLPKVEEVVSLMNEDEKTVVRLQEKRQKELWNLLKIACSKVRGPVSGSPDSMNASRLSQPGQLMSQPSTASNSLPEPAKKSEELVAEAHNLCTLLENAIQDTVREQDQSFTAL
Outline: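 Baculovirus-expressed C-terminal GST-tagged IKKβ (0.5-5 nM final) in HEPES pH 7.4, MgCl2, CHAPS, DTT, BSA with 1.7% DMSO; 25 nM GST-IB substrate and 1 μM ATP, 15 min at room temperature. EDTA stop; phospho-Ser32/36 detected by Eu-antibody/APC-anti-GST TR-FRET, 665/620 nm ratio.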

Compound | inhibition at 0.3 µM [1] | IC50 [2] | IC50 [1]
CCSCCN(C)Cc1cc(-c2cc(C(N)=O)c3[nH]cc(C4CCN(S(=O)(=O)CC)CC4)c3c2)cs1 [Example 430, 3-[1-(ethylsulfonyl)-4-piperidinyl]-5-(5-{[[2-(ethylthio)ethyl](methyl)amino]methyl}-3-thienyl)-1H-indole-7-carboxamide] | 0 to 60% | ≤ 10 µM | 
CCS(=O)(=O)N1CCC(c2c[nH]c3c(C(N)=O)cc(-c4ccnc(N5CCCC5)c4)cc23)CC1 [Example 203, trifluoroacetate] |  | ≤ 10 µM | > 1 µM
CCS(=O)(=O)N1CCC(c2c[nH]c3c(C(N)=O)cc(-c4cnn(CCN5CCOCC5)c4)cc23)CC1 [Example 254, 3-[1-(ethylsulfonyl)-4-piperidinyl]-5-{1-[2-(4-morpholinyl)ethyl]-1H-pyrazol-4-yl}-1H-indole-7-carboxamide trifluoroacetate] |  | ≤ 10 µM | > 1 µM
CCS(=O)(=O)N1CCC(c2c[nH]c3c(C(N)=O)cc(-c4ccnc(N(C)C)c4)cc23)CC1 [Example 202, 5-[2-(dimethylamino)-4-pyridinyl]-3-[1-(ethylsulfonyl)-4-piperidinyl]-1H-indole-7-carboxamide trifluoroacetate] |  | ≤ 10 µM | > 1 µM
CCS(=O)(=O)N1CCC(c2c[nH]c3c(C(N)=O)cc(-c4csc([C@@H](C)N5CCCC5)c4)cc23)CC1 [Example 213, 3-[1-(ethylsulfonyl)-4-piperidinyl]-5-{5-[(1R)-1-(1-pyrrolidinyl)ethyl]-3-thienyl}-1H-indole-7-carboxamide] |  | ≤ 10 µM | ≤ 1.5 µM
CCS(=O)(=O)N1CCC(c2c[nH]c3c(C(N)=O)cc(-c4ccc(CNCC(C)(C)C)s4)cc23)CC1 [Example 171, 5-(5-{[(2,2-dimethylpropyl)amino]methyl}-2-thienyl)-3-[1-(ethylsulfonyl)-4-piperidinyl]-1H-indole-7-carboxamide] |  | ≤ 10 µM | ≤ 1.5 µM
CCS(=O)(=O)N1CCC(c2c[nH]c3c(C(N)=O)cc(-c4csc(CNCC5CC5)c4)cc23)CC1 [Example 115, 5-(5-{[(cyclopropylmethyl)amino]methyl}-3-thienyl)-3-[1-(ethylsulfonyl)-4-piperidinyl]-1H-indole-7-carboxamide trifluoroacetate] |  | ≤ 10 µM | ≤ 1.5 µM
CCS(=O)(=O)N1CCC(c2c[nH]c3c(C(N)=O)cc(-c4csc(CN(C)Cc5ccco5)c4)cc23)CC1 [Example 77, 3-[1-(ethylsulfonyl)-4-piperidinyl]-5-(5-{[(2-furanylmethyl)(methyl)amino]methyl}-3-thienyl)-1H-indole-7-carboxamide trifluoroacetate] |  | ≤ 10 µM | ≤ 1.5 µM
CCS(=O)(=O)N1CCC(c2c[nH]c3c(C(N)=O)cc(-c4ccc(CNCC5CC5)s4)cc23)CC1 [Example 172, 5-(5-{[(cyclopropylmethyl)amino]methyl}-2-thienyl)-3-[1-(ethylsulfonyl)-4-piperidinyl]-1H-indole-7-carboxamide] |  | ≤ 10 µM | ≤ 1.5 µM
CCS(=O)(=O)N1CCC(c2c[nH]c3c(C(N)=O)cc(-c4cccc(CNS(=O)(=O)c5c(C)cccc5Cl)c4)cc23)CC1 [Example 376, 5-[3-({[(2-chloro-6-methylphenyl)sulfonyl]amino}methyl)phenyl]-3-[1-(ethylsulfonyl)-4-piperidinyl]-1H-indole-7-carboxamide] |  | ≤ 10 µM | ≤ 1.5 µM
CCS(=O)(=O)N1CCC(c2c[nH]c3c(C(N)=O)cc(-c4cncc(CNCCCOC)c4)cc23)CC1 [Example 175, 3-[1-(ethylsulfonyl)-4-piperidinyl]-5-[5-({[3-(methyloxy)propyl]amino}methyl)-3-pyridinyl]-1H-indole-7-carboxamide] | 0 to 60% | ≤ 10 µM | 
CCS(=O)(=O)N1CCC(c2c[nH]c3c(C(N)=O)cc(-c4csc(CN(C)C5CCCCC5)c4)cc23)CC1 [Example 96, 5-(5-{[cyclohexyl(methyl)amino]methyl}-3-thienyl)-3-[1-(ethylsulfonyl)-4-piperidinyl]-1H-indole-7-carboxamide] |  | ≤ 10 µM | ≤ 1.5 µM
CCNCCc1cccc(-c2cc(C(N)=O)c3[nH]cc(C4CCN(S(=O)(=O)CC)CC4)c3c2)c1 [Example 346, 5-{3-[2-(ethylamino)ethyl]phenyl}-3-[1-(ethylsulfonyl)-4-piperidinyl]-1H-indole-7-carboxamide trifluoroacetate] |  | ≤ 10 µM | ≤ 1.5 µM
CCS(=O)(=O)N1CCC(c2c[nH]c3c(C(N)=O)cc(-c4cc(F)cc(CNCc5cccs5)c4)cc23)CC1 [Example 325, 3-[1-(ethylsulfonyl)-4-piperidinyl]-5-(3-fluoro-5-{[(2-thienylmethyl)amino]methyl}phenyl)-1H-indole-7-carboxamide trifluoroacetate] |  | ≤ 10 µM | ≤ 1.5 µM
CCS(=O)(=O)N1CCC(c2c[nH]c3c(C(N)=O)cc(-c4cnn(CCN5CCCC5)c4)cc23)CC1 [Example 253, 3-[1-(ethylsulfonyl)-4-piperidinyl]-5-{1-[2-(1-pyrrolidinyl)ethyl]-1H-pyrazol-4-yl}-1H-indole-7-carboxamide trifluoroacetate] |  | ≤ 10 µM | > 1 µM
CCS(=O)(=O)N1CCC(c2c[nH]c3c(C(N)=O)cc(-c4cc(F)cc(CN[C@@H](C)C(C)C)c4)cc23)CC1 [Example 314, 5-[3-({[(1S)-1,2-dimethylpropyl]amino}methyl)-5-fluorophenyl]-3-[1-(ethylsulfonyl)-4-piperidinyl]-1H-indole-7-carboxamide] |  | ≤ 10 µM | ≤ 1.5 µM
CCS(=O)(=O)N1CCC(c2c[nH]c3c(C(N)=O)cc(-c4cc(CNC)ccc4F)cc23)CC1 [Example 333, 3-[1-(ethylsulfonyl)-4-piperidinyl]-5-{2-fluoro-5-[(methylamino)methyl]phenyl}-1H-indole-7-carboxamide trifluoroacetate] |  | ≤ 10 µM | ≤ 1.5 µM
CCCNc1cc(-c2cc(C(N)=O)c3[nH]cc(C4CCN(S(=O)(=O)CC)CC4)c3c2)ccn1 [Example 207, 3-[1-(ethylsulfonyl)-4-piperidinyl]-5-[2-(propylamino)-4-pyridinyl]-1H-indole-7-carboxamide trifluoroacetate] |  | ≤ 10 µM | > 1 µM
CCS(=O)(=O)N1CCC(c2c[nH]c3c(C(N)=O)cc(-c4ccc(CCNC(=O)C5CCC5)cc4)cc23)CC1 [Example 132, 5-(4-{2-[(cyclobutylcarbonyl)amino]ethyl}phenyl)-3-[1-(ethylsulfonyl)-4-piperidinyl]-1H-indole-7-carboxamide] |  | ≤ 10 µM | > 1 µM
CCS(=O)(=O)N1CCC(c2c[nH]c3c(C(N)=O)cc(-c4cccc(-n5cccn5)c4)cc23)CC1 [Example 164, 3-[1-(ethylsulfonyl)-4-piperidinyl]-5-[3-(1H-pyrazol-1-yl)phenyl]-1H-indole-7-carboxamide] |  |  | ≤ 1.5 µM
CCS(=O)(=O)N1CCC(c2c[nH]c3c(C(N)=O)cc(-c4csc(CN5CCCC5CC(C)C)c4)cc23)CC1 (stereo not drawn) [Example 97, 3-[1-(ethylsulfonyl)-4-piperidinyl]-5-(5-{[2-(2-methylpropyl)-1-pyrrolidinyl]methyl}-3-thienyl)-1H-indole-7-carboxamide] | 0 to 60% |  | 
CCS(=O)(=O)N1CCC(c2c[nH]c3c(C(N)=O)cc(-c4ccc5c(c4)C(NCC(C)C)CCC5)cc23)CC1 (stereo not drawn) [Example 34, 3-[1-(ethylsulfonyl)-4-piperidinyl]-5-{8-[(2-methylpropyl)amino]-5,6,7,8-tetrahydro-2-naphthalenyl}-1H-indole-7-carboxamide trifluoroacetate] |  |  | > 1 µM
CCS(=O)(=O)N1CCC(c2c[nH]c3c(C(N)=O)cc(-c4ccc(CNCC(C)C)s4)cc23)CC1 [Example 243, 3-[1-(ethylsulfonyl)-4-piperidinyl]-5-(5-{[(2-methylpropyl)amino]methyl}-2-thienyl)-1H-indole-7-carboxamide trifluoroacetate] |  |  | ≤ 1.5 µM
